Test results as given in patent publication US6737383B1, “Herbicidal oxadiazolidines” (priority 1999, dated 2004).

Tests used:
wild oat = test: Test B pre/postemergence wild oat; format: in vivo, Avena fatua; conditions: for Wild oats plant response rating: scale of 0 to 10 where 0 is no effect and 10 is complete control
How it was run: (§1)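 Test chemicals in a non-phytotoxic solvent mixture with surfactant were sprayed preemergence onto planted seeds and postemergence onto plants 2 to 18 cm tall (1- to 4-leaf stage). After twelve to sixteen days in a greenhouse, injury was visually rated against untreated controls from 0 (no effect) to 10 (complete control).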

sugar beet = test: Test B pre/postemergence sugar beet; format: in vivo, Beta vulgaris; conditions: for Sugarbeets plant response rating: scale of 0 to 10 where 0 is no effect and 10 is complete control
How it was run: as §1

duck salad = test: Test B flood test duck salad; format: in vivo, Heteranthera limosa
How it was run: (§2)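 Flood test on plants grown to the 2-leaf stage; treated plants kept in greenhouse twelve to sixteen days, then visually rated against controls on a 0 (no effect) to 10 (complete control) scale.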

bamyardgrass = test: Test B flood test barnyardgrass; format: in vivo, Echinochloa crus-galli
How it was run: as §2

purple nutsedge = test: Test B pre/postemergence purple nutsedge; format: in vivo, Cyperus rotundus; conditions: for Nutsedge plant response rating: scale of 0 to 10 where 0 is no effect and 10 is complete control
How it was run: as §1

surinam grass = test: Test B pre/postemergence surinam grass; format: in vivo, Brachiaria decumbens; conditions: for B. signalgrass plant response rating: scale of 0 to 10 where 0 is no effect and 10 is complete control
How it was run: as §1

blackgrass = test: Test B pre/postemergence blackgrass; format: in vivo, Alopecurus myosuroides; conditions: for Blackgrass plant response rating: scale of 0 to 10 where 0 is no effect and 10 is complete control
How it was run: as §1

rape = test: Test B pre/postemergence rape; format: in vivo, Brassica napus; conditions: for Rape plant response rating: scale of 0 to 10 where 0 is no effect and 10 is complete control
How it was run: as §1

rice = test: Test B flood test rice; format: in vivo, Oryza sativa
How it was run: as §2

crabgrass = test: Test B pre/postemergence crabgrass; format: in vivo, Digitaria sanguinalis; conditions: for Crabgrass plant response rating: scale of 0 to 10 where 0 is no effect and 10 is complete control
How it was run: as §1

velvetleaf = test: Test B pre/postemergence velvetleaf; format: in vivo, Abutilon theophrasti; conditions: for Velvetleaf plant response rating: scale of 0 to 10 where 0 is no effect and 10 is complete control
How it was run: as §1

bedstraw = test: Test B pre/postemergence bedstraw; format: in vivo, Galium aparine
How it was run: as §1

corn = test: Test B pre/postemergence corn; format: in vivo, Zea mays; conditions: for Corn plant response rating: scale of 0 to 10 where 0 is no effect and 10 is complete control
How it was run: as §1

wheat = test: Test B pre/postemergence wheat; format: in vivo, Triticum aestivum; conditions: for Wheat plant response rating: scale of 0 to 10 where 0 is no effect and 10 is complete control
How it was run: as §1

giant foxtail = test: Test B pre/postemergence giant foxtail; format: in vivo, Setaria faberii; conditions: for Giant foxtail plant response rating: scale of 0 to 10 where 0 is no effect and 10 is complete control
How it was run: as §1

smallflower flatsedge = test: Test B flood test smallflower flatsedge; format: in vivo, Cyperus difformis
How it was run: as §2

[1] = Postemergence, Rate 125 g/ha, scale 0 to 10, 0 is no effect, 10 is complete control
[2] = Postemergence, Rate 250 g/ha, scale 0 to 10, 0 is no effect, 10 is complete control
[3] = Preemergence, Rate 62 g/ha, scale 0 to 10 (0 no effect, 10 complete control)
[4] = Rate 500 g/ha, Postemergence, scale 0 to 10, 0 no effect, 10 complete control
[5] = Rate 62 g/ha, flood test species, Pre-emergence, visual evaluation after twelve to sixteen days
[6] = Rate 125 g/ha, under heading Pre-emergence, flood test species, visual evaluation after twelve to sixteen days
[7] = Rate 250 g/ha, Pre-emergence, flood-test species, scale 0 to 10, 0 is no effect, 10 is complete control
[8] = Rate 500 g/ha, Pre-emergence, flood test species, scale 0 to 10 (0 no effect, 10 complete control)

## CC(C)N(C(=O)n1oc(=O)n(N2CCOCC2)c1=O)c1ccc(F)cc1 [Compound 385]
Wild oat; [1]
  Plant response rating, Wild oats: 0
Wild oat; [2]
  Plant response rating, Wild oats: 2
Wild oat; [3]
  Plant response rating, Wild oats: 0
Wild oat; Preemergence, Rate 125 g/ha
  Wild oats plant response rating (0 to 10 scale): 2
Wild oat; Preemergence, Rate 250 g/ha
  Wild oats plant response rating: 7
Wild oat; Preemergence, Rate 500 g/ha
  Wild oats plant response rating: 10
Wild oat; Rate 62 g/ha, Postemergence
  Wild oats plant response rating: 0
Wild oat; [4]
  Plant response rating, Wild oats: 3
Sugar beet; [1]
  Plant response rating, Sugarbeets: 0
Sugar beet; [2]
  Plant response rating, Sugarbeets: 0
Sugar beet; [3]
  Plant response rating, Sugarbeets: 0
Sugar beet; Preemergence, Rate 125 g/ha
  Sugarbeets plant response rating (0 to 10 scale): 1
Sugar beet; Preemergence, Rate 250 g/ha
  Sugarbeets plant response rating: 2
Sugar beet; Preemergence, Rate 500 g/ha
  Sugarbeets plant response rating: 7
Sugar beet; Rate 62 g/ha, Postemergence
  Sugarbeets plant response rating: 0
Sugar beet; [4]
  Plant response rating, Sugarbeets: 0
Duck salad; [5]
  Plant response rating, Ducksalad (0 to 10 scale, 0 is no effect, 10 is complete control): 0
Duck salad; [6]
  Ducksalad plant response rating (0 to 10 scale, 0 is no effect, 10 is complete control): 0
Duck salad; [7]
  Ducksalad plant response rating: 0
Duck salad; [8]
  Ducksalad plant response rating: 0
bamyardgrass; [5]
  Plant response rating, Barnyardgrass (0 to 10 scale, 0 is no effect, 10 is complete control): 0
bamyardgrass; [6]
  Barnyardgrass plant response rating (0 to 10 scale, 0 is no effect, 10 is complete control): 0
bamyardgrass; [7]
  Barnyardgrass plant response rating: 0
bamyardgrass; [8]
  Barnyardgrass plant response rating: 0
Purple nutsedge; [1]
  Plant response rating, Nutsedge: 0
Purple nutsedge; [2]
  Plant response rating, Nutsedge: 0
Purple nutsedge; [3]
  Plant response rating, Nutsedge: 0
Purple nutsedge; Preemergence, Rate 125 g/ha
  Nutsedge plant response rating (0 to 10 scale): 0
Purple nutsedge; Preemergence, Rate 250 g/ha
  Nutsedge plant response rating: 0
Purple nutsedge; Preemergence, Rate 500 g/ha
  Nutsedge plant response rating: 0
Purple nutsedge; Rate 62 g/ha, Postemergence
  Nutsedge plant response rating: 0
Purple nutsedge; [4]
  Plant response rating, Nutsedge: 0
Surinam grass; [1]
  Plant response rating, B. signalgrass: 3
Surinam grass; [2]
  Plant response rating, B. signalgrass: 6
Surinam grass; [3]
  Plant response rating, B. signalgrass: 0
Surinam grass; Preemergence, Rate 125 g/ha
  B. signalgrass plant response rating (0 to 10 scale, 0 is no effect, 10 is complete control): 0
Surinam grass; Preemergence, Rate 250 g/ha
  B. signalgrass plant response rating: 7
Surinam grass; Preemergence, Rate 500 g/ha
  B. signalgrass plant response rating: 9
Surinam grass; Rate 62 g/ha, Postemergence
  B. signalgrass plant response rating: 0
Surinam grass; [4]
  Plant response rating, B. signalgrass: 8
blackgrass; [1]
  Plant response rating, Blackgrass: 0
blackgrass; [2]
  Plant response rating, Blackgrass: 2
blackgrass; [3]
  Plant response rating, Blackgrass: 0
blackgrass; Preemergence, Rate 125 g/ha
  Blackgrass plant response rating (0 to 10 scale): 0
blackgrass; Preemergence, Rate 250 g/ha
  Blackgrass plant response rating: 6
blackgrass; Preemergence, Rate 500 g/ha
  Blackgrass plant response rating: 10
blackgrass; Rate 62 g/ha, Postemergence
  Blackgrass plant response rating: 0
blackgrass; [4]
  Plant response rating, Blackgrass: 8
rape; [1]
  Plant response rating, Rape: 0
rape; [2]
  Plant response rating, Rape: 0
rape; [3]
  Plant response rating, Rape: 0
rape; Preemergence, Rate 125 g/ha
  Rape plant response rating (0 to 10 scale): 0
rape; Preemergence, Rate 250 g/ha
  Rape plant response rating: 0
rape; Preemergence, Rate 500 g/ha
  Rape plant response rating: 4
rape; Rate 62 g/ha, Postemergence
  Rape plant response rating: 0
rape; [4]
  Plant response rating, Rape: 0
rice; [5]
  Plant response rating, Rice (0 to 10 scale, 0 is no effect, 10 is complete control): 0
rice; [6]
  Rice plant response rating (0 to 10 scale, 0 is no effect, 10 is complete control): 0
rice; [7]
  Rice plant response rating: 0
rice; [8]
  Rice plant response rating: 0
crabgrass; [1]
  Plant response rating, Crabgrass: 7
crabgrass; [2]
  Plant response rating, Crabgrass: 9
crabgrass; [3]
  Plant response rating, Crabgrass: 3
crabgrass; Preemergence, Rate 125 g/ha
  Crabgrass plant response rating (0 to 10 scale): 9
crabgrass; Preemergence, Rate 250 g/ha
  Crabgrass plant response rating: 9
crabgrass; Preemergence, Rate 500 g/ha
  Crabgrass plant response rating: 10
crabgrass; Rate 62 g/ha, Postemergence
  Crabgrass plant response rating: 6
crabgrass; [4]
  Plant response rating, Crabgrass: 9
velvetleaf; [1]
  Plant response rating, Velvetleaf: 0
velvetleaf; [2]
  Plant response rating, Velvetleaf: 0
velvetleaf; [3]
  Plant response rating, Velvetleaf: 0
velvetleaf; Preemergence, Rate 125 g/ha
  Velvetleaf plant response rating (0 to 10 scale): 0
velvetleaf; Preemergence, Rate 250 g/ha
  Velvetleaf plant response rating: 3
velvetleaf; Preemergence, Rate 500 g/ha
  Velvetleaf plant response rating: 3
velvetleaf; Rate 62 g/ha, Postemergence
  Velvetleaf plant response rating: 0
velvetleaf; [4]
  Plant response rating, Velvetleaf: 0
bedstraw; [2]
  Plant response rating, Bedstraw: 0
bedstraw; [3]
  Plant response rating, Bedstraw: 0
bedstraw; [4]
  Plant response rating, Bedstraw: 3
corn; [1]
  Plant response rating, Corn: 0
corn; [2]
  Plant response rating, Corn: 0
corn; [3]
  Plant response rating, Corn: 0
corn; Preemergence, Rate 125 g/ha
  Corn plant response rating (0 to 10 scale): 0
corn; Preemergence, Rate 250 g/ha
  Corn plant response rating: 0
corn; Preemergence, Rate 500 g/ha
  Corn plant response rating: 0
corn; Rate 62 g/ha, Postemergence
  Corn plant response rating: 0
corn; [4]
  Plant response rating, Corn: 0
wheat; [1]
  Plant response rating, Wheat: 0
wheat; [2]
  Plant response rating, Wheat: 0
wheat; [3]
  Plant response rating, Wheat: 0
wheat; Preemergence, Rate 125 g/ha
  Wheat plant response rating (0 to 10 scale): 0
wheat; Preemergence, Rate 250 g/ha
  Wheat plant response rating: 3
wheat; Preemergence, Rate 500 g/ha
  Wheat plant response rating: 8
wheat; Rate 62 g/ha, Postemergence
  Wheat plant response rating: 0
wheat; [4]
  Plant response rating, Wheat: 5
Giant foxtail; [1]
  Plant response rating, Giant foxtail: 9
Giant foxtail; [2]
  Plant response rating, Giant foxtail: 9
Giant foxtail; [3]
  Plant response rating, Giant foxtail: 3
Giant foxtail; Preemergence, Rate 125 g/ha
  Giant foxtail plant response rating (0 to 10 scale): 10
Giant foxtail; Preemergence, Rate 250 g/ha
  Giant foxtail plant response rating: 10
Giant foxtail; Preemergence, Rate 500 g/ha
  Giant foxtail plant response rating: 10
Giant foxtail; Rate 62 g/ha, Postemergence
  Giant foxtail plant response rating: 7
Giant foxtail; [4]
  Plant response rating, Giant foxtail: 9
Smallflower flatsedge; [5]
  Plant response rating, S. Flatsedge (0 to 10 scale, 0 is no effect, 10 is complete control): 0
Smallflower flatsedge; [6]
  S. Flatsedge plant response rating (0 to 10 scale, 0 is no effect, 10 is complete control): 0
Smallflower flatsedge; [7]
  S. Flatsedge plant response rating: 0
Smallflower flatsedge; [8]
  S. Flatsedge plant response rating: 0
